Test results taken from patent US12630552B2, “Inhibitors of KRAS G12C” (BEIGENE, LTD., priority 2019, dated 2026).

What follows are compounds tested against T1, KRAS (aa 1-169) G12C, C51S, C80L, C118S (Homo sapiens, UniProt P01116, C118S/C51S/C80L/G12C) (assay: KRAS G12C SOS1-mediated nucleotide exchange / GST-cRaf RBD binding FRET assay). Settings: GDP-loaded KRAS G12C pre-incubated with compound at 24° C. for 3 hrs; SOS1, GTPγS and GST-cRaf RBD added; FRET 665 nm/620 nm.
T1 construct: The KRAS (aa 1-169) G12C, C51S, C80L, C118S with a His-tag; made in house
T1 sequence (P01116 1-169 isoform P01116-2 G12C/C51S/C80L/C118S): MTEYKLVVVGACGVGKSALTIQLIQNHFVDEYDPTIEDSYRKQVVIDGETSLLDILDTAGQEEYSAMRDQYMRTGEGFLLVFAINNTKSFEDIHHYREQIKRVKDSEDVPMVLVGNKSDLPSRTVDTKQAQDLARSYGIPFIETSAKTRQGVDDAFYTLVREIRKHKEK
Format: biochemical
Description: Biochemical Functional Assay:
The KRAS (aa 1-169) G12C, C51S, C80L, C118S with a His-tag was expressed, purified and loaded with GDP in house. All protein and substrate solutions were prepared in assay buffer containing 25 mM HEPES pH7.5, 10 mM MgCl2, and 0.01% Triton X-100. Purified GDP-loaded KRAS (aa 1-169) G12C, C51S, C80L, C118S protein was pre-incubated with a serially diluted compound at 24° C. for 3 hrs. Purified SOS1 (aa 564-1049) protein, GTPγS (Sigma) and GST-cRaf RBD (aa 1-149) were then added to each well and incubated at 24° C. for additional 3 hrs. […] Following the incubation, Mab Anti-6HIS-Tb cryptate (Cisbio) and Mab Anti GST-XL665 (Cisbio) were added and further incubated at 24° C. for 3 hrs. The binding interaction between active GTPγS KRAS G12C and GST-cRaf RBD brings the Tb and XL665 into close proximity enabling an increased FRET signal (Ex337 nm, Em665 nm/620 nm). The inhibition percentage of nucleotide exchange reaction in presence of increasing concentrations of compounds was calculated based on the ratio of fluorescence at 665 nm to that at 620 nm detected on a BMG PHERAstar FSX instrument. The IC50 value of each compound was calculated from fitting the data to the four-parameter logistic model by Dotmatics.
`C=CC(=O)N1CCN(c2nc(OC[C@@H]3CCCN3C)nc3c2CN(Cc2cccc(C)c2Cl)C3)C[C@@H]1CC#N` [Example 53] showed an IC50 of 14.9 nM. In the case of `C=CC(=O)N1CCN(c2nc(OC[C@@H]3CCCN3C)nc3c2CN(C(=O)Nc2cccc4ccccc24)C3)C[C@@H]1CC#N` [Example 38, 4-((S)-4-acryloyl-3-(cyanomethyl)piperazin-1-yl)-2-(((S)-1-methylpyrrolidin-2-yl)methoxy)-N-(naphthalen-1-yl)-5,7-dihydro-6H-pyrrolo[3,4-d]pyrimidine-6-carboxamide], the IC50 is reported as 1570 nM. For `C=CC(=O)N1CCN(c2nc(OC[C@@H]3CCCN3C)nc3c2CN(C2c4ccccc4-c4ccccc42)C3)C[C@@H]1CC#N` [Example 40, 2-((S)-4-(6-(9H-fluoren-9-yl)-2-(((S)-1-methylpyrrolidin-2-yl)methoxy)-6,7-dihydro-5H-pyrrolo[3,4-d]pyrimidin-4-yl)-1-acryloylpiperazin-2-yl)acetonitrile], the IC50 was 1510 nM. `C=CC(=O)N1CCN(c2nc(OC[C@@H]3CCCN3C)nc3c2CN(Cc2c(C)ccc4[nH]ncc24)C3)C[C@@H]1CC#N` [Example 41, 2-((S)-1-acryloyl-4-(6-((5-methyl-1H-indazol-4-yl)methyl)-2-(((S)-1-methylpyrrolidin-2-yl)methoxy)-6,7-dihydro-5H-pyrrolo[3,4-d]pyrimidin-4-yl)piperazin-2-yl)acetonitrile] gave an IC50 of 77.2 nM. `C=CC(=O)N1CCN(c2nc(OC[C@@H]3CCCN3C)nc3c2CN(Cc2cccc4cccc(O)c24)C3)C[C@@H]1CC#N` [Example 24, 2-((S)-1-acryloyl-4-(6-((8-hydroxynaphthalen-1-yl)methyl)-2-(((S)-1-methylpyrrolidin-2-yl)methoxy)-6,7-dihydro-5H-pyrrolo[3,4-d]pyrimidin-4-yl)piperazin-2-yl)acetonitrile] was tested, and the IC50 was 101 nM. `C=CC(=O)N1CCN(c2nc(OC[C@@H]3CCCN3C)nc3c2CN(Cc2c(O)ccc4ccccc24)C3)C[C@@H]1CC#N` [Example 42, 2-((S)-1-acryloyl-4-(6-((2-hydroxynaphthalen-1-yl)methyl)-2-(((S)-1-methylpyrrolidin-2-yl)methoxy)-6,7-dihydro-5H-pyrrolo[3,4-d]pyrimidin-4-yl)piperazin-2-yl)acetonitrile] gave an IC50 of 9980 nM. Work on `C=CC(=O)N1CCN(c2nc(OCC3CCCN3C)nc3c2CN(C2Cc4cccc5cccc2c45)C3)CC1CC#N` (single isomer, unassigned) [Example 15 (P1)] yielded an IC50 of 492 nM. `C=CC(=O)N1CCN(c2nc(N3CC(N(C)C)C3)nc3c2CN(Cc2cccc4ccccc24)C3)C[C@@H]1CC#N` [Example 19, (S)-2-(1-acryloyl-4-(2-(3-(dimethylamino)azetidin-1-yl)-6-(naphthalen-1-ylmethyl)-6,7-dihydro-5H-pyrrolo[3,4-d]pyrimidin-4-yl)piperazin-2-yl)acetonitrile] showed an IC50 of 976 nM. `C=CC(=O)N1CCN(c2nc(OC3CCN(C)CC3)nc3c2CN(C2Cc4cccc5cccc2c45)C3)CC1CC#N` (single isomer, unassigned) [Example 17 (P2)] gave an IC50 of 949 nM. `C=CC(=O)N1CCN(c2nc(OC[C@@H]3CCCN3C)nc3c2CN(C(C)c2cccc4ccccc24)C3)C[C@@H]1CC#N` (stereo partly drawn) [Example 11, 2-((2S)-1-acryloyl-4-(2-(((S)-1-methylpyrrolidin-2-yl)methoxy)-6-(1-(naphthalen-1-yl)ethyl)-6,7-dihydro-5H-pyrrolo[3,4-d]pyrimidin-4-yl)piperazin-2-yl)acetonitrile] was tested, and the IC50 was 170 nM. Compound `C=CC(=O)N1CCN(c2nc(N3CC(N(C)C)C3)nc3c2CN(C2Cc4cccc5cccc2c45)C3)CC1CC#N` (single isomer, unassigned) [Example 16 (P1)] has an IC50 of 5650 nM. In the case of `C=CC(=O)N1CCN(c2nc(OC[C@@H]3CCCN3C)nc3c2CN(C(=O)c2c(C)ccc4ccccc24)C3)C[C@@H]1CC#N` [Example 34, 2-((S)-1-acryloyl-4-(6-(2-methyl-1-naphthoyl)-2-(((S)-1-methylpyrrolidin-2-yl)methoxy)-6,7-dihydro-5H-pyrrolo[3,4-d]pyrimidin-4_yl)piperazin-2-yl)acetonitrile], the IC50 is reported as 505 nM. Work on `C=CC(=O)N1CCN(c2nc(OC[C@@H]3CCCN3C)nc3c2CN(Cc2cccc4ccccc24)C3)C[C@@H]1CC#N` [Example 6, 2-((S)-1-acryloyl-4-(2-(((S)-1-methylpyrrolidin-2-yl)methoxy)-6-(naphthalen-1-ylmethyl)-6,7-dihydro-5H-pyrrolo[3,4-d]pyrimidin-4-yl)piperazin-2-yl)acetonitrile] yielded an IC50 of 27.7 nM. Compound `C=CC(=O)N1CCN(c2nc(OC[C@@H]3CCCN3C)nc3c2CN(C(=O)c2cc(O)ccc2C)C3)C[C@@H]1CC#N` [Example 47] has an IC50 of 102 nM. For `C=CC(=O)N1CCN(c2nc(OC3CCN(C)CC3)nc3c2CN(C2Cc4cccc5cccc2c45)C3)CC1CC#N` (single isomer, unassigned) [Example 17 (P1)], the IC50 was 2200 nM. Compound `C=CC(=O)N1CCN(c2nc(OC[C@@H]3CCCN3C)nc3c2CN(Cc2cccc4cccc(C)c24)C3)C[C@@H]1CC#N` [Example 8, 2-((S)-1-acryloyl-4-(6-((8-methylnaphthalen-1-yl)methyl)-2-(((S)-1-methylpyrrolidin-2-yl)methoxy)-6,7-dihydro-5H-pyrrolo[3,4-d]pyrimidin-4-yl)piperazin-2-yl)acetonitrile] has an IC50 of 495 nM.
